Experiments:
[1] = tested on: CD69 expression on CD20 positive cells in human whole blood stimulated by anti-IgM; assay: CD69 Whole Blood Assay; format: cell-based; settings: concentration decreasing by 50% the percent CD69 positive cells that are also CD20 positive, 20 hours
Description: Human blood is obtained from healthy volunteers, with the following restrictions: 1 week drug-free, non-smokers. Blood (approximately 20 mls to test 8 compounds) is collected by venipuncture into Vacutainer tubes with sodium heparin.
Cynomolgus monkey blood is obtained courtesy of the LAT group from monkeys not previously exposed to, or after a washout period from, chemical dosing. Additional cyno blood draws may be collected during the course of pharmacokinetic or toxicology studies. Blood (25-30 mls for naïve monkeys or 3-4 mls from monkeys on studies requiring repeated draws) is collected by venipuncture into Vacutainer tubes with sodium heparin.
Solutions of Formula I compounds at 1000 or 2000 μM in PBS (20×), are diluted by three-fold serial dilutions in 10% DMSO in PBS for a nine point dose-response curve. An aliquot of 5.5 μl of each compound is added in duplicate to a 2 ml 96-well plate; 5.5 μl of 10% DMSO in PBS is added as control and no-stimulus wells. Human whole blood—HWB (100 μl) is added to each well. After mixing the plates are incubated at 37° C., 5% CO2, 100% humidity for 30 minutes. Goat F(ab′)2 anti-human IgM (10 μl of a 500 μg/ml solution, 50 μg/ml final) is added to each well (except the no-stimulus wells) with mixing and the plates are incubated for an additional 20 hours. At the end of the 20 hour incubation, samples are incubated with fluorescent labeled antibodies for 30 minutes, at 37° C., 5% CO2, 100% humidity. Include induced control, unstained and single stains for compensation adjustments and initial voltage settings. Samples are then lysed with Pharmingen Lyse according to the manufacturer's instructions. Samples are then transferred to a 96 well plate suitable to be run on the AMS 96 well system on the BD Calibur FACs machine. Data acquired and Mean Fluorescence Intensity values were obtained using Cell Quest Software. Results are initially analyzed by FACS analysis software (Flow Jo). […] The […] values are calculated by ActivityBase using Xlfit version 3, equation 201.

p110 delta = target: T1, p110 delta (Homo sapiens, UniProt O00329); assay: PI3K isoform inhibition assay (fluorescence polarization), p110 delta; format: biochemical; settings: p110 delta binding IC50, selected compounds from Table 1
T1 construct: purchased Upstate Group, Millipore; Dundee, UK
Description: PI3K enzymatic activity was assayed by measuring the amount of product phosphatidylinositol 3,4,5-phosphate (PIP3) formed from substrate 4,5 phosphatidylinositol 4,5-phosphate (PIP2) using a fluorescence polarization displacement assay. The decrease in fluorescence polarization of a fluorescent PIP3 probe is measured as it is displaced from a PIP3-binding protein GRP-1detector by PI3K-catalyzed product. Assays were conducted in 384-well black Proxiplates in the presence of 10 mM Tris (pH 7.5), 50 mM NaCl, 4 mM MgCl2, 5% glycerol, 25 μM ATP, 10 μM PIP2 (Echelon Biosciences), 0.05% 3-[(3-cholamidopropyl)dimethylammonio]-1-propanesulfonate, 1 mM dithiothreitol, and 2% DMSO. The kinase reactions were initiated by the addition of 40 ng/mL p110α/p85α, 300 ng/mL p110β/p85α, 40 ng/mL p110γ, or 40 ng/mL p110δ/p85α (Upstate Group, Millipore; Dundee, UK), and 10 μM PIP2 (Echelon Biosciences) to the wells. The reactions were stopped at timepoints that yielded a fixed change in fluorescence polarization consistent with initial rate conditions (typically 30 minutes), by the addition of 12.5 mM EDTA, 100 nM GRP-1 detector, and 5 nM tetramethylrhodamine-labeled PIP3 (TAMRA-PIP3; Echelon Biosciences). After 60 minutes of incubation at room temperature to allow equilibration of labeled and unlabeled PIP3 binding, the parallel and perpendicular components of the fluorescence emissions from each sample were measured at an excitation wavelength of 530 nm and an emission wavelength of 590 nm using an Envision fluorescent plate reader with a rhodamine filter (PerkinElmer Life and Analytical Sciences; Wellesley, Mass.). The assay is capable of detecting 0.1-2.0 μM PIP3 product. The IC50 values were obtained by fitting the dose-dependent inhibition data to a 4-parameter equation using Assay Explorer software (MDL, San Ramon, Calif.). […]
(§1) Recombinant PI3K p110 isoforms alpha, beta, and delta may be prepared and purified according to US 2008/0275067 from recombinant PI3K heterodimeric complexes consisting of a p110 catalytic subunit and a p85 regulatory subunit overexpressed using the BAC-TO-BAC® HT baculovirus expression system (GIBCO/BRL), and then purified for use in biochemical assays. The four Class I PI 3-kinases are cloned into baculovirus vectors as follows:
p110 delta: A FLAG™-tagged (Eastman Kodak Co., U.S. Pat. No. 4,703,004; U.S. Pat. No. 4,782,137; U.S. Pat. No. 4,851,341) version of human p110.delta (Chantry et al., J. Biol. Chem. (1997) 272:19236-41) is subcloned using standard recombinant DNA techniques into the BamHI-XbaI site of the insect cell expression vector pFastbac HTb (Life Technologies, Gaithersburg, Md.), such that the clone is in frame with the His tag of the vector.

p110 alpha = target: T2, p110 alpha (Homo sapiens, UniProt P42336); assay: PI3K isoform inhibition assay, p110 alpha (delta/alpha selectivity); format: biochemical; settings: delta/alpha selectivity ratio
T2 construct: purchased Upstate Group, Millipore; Dundee, UK
Description: PI3K enzymatic activity was assayed by measuring the amount of product phosphatidylinositol 3,4,5-phosphate (PIP3) formed from substrate 4,5 phosphatidylinositol 4,5-phosphate (PIP2) using a fluorescence polarization displacement assay. The decrease in fluorescence polarization of a fluorescent PIP3 probe is measured as it is displaced from a PIP3-binding protein GRP-1detector by PI3K-catalyzed product. Assays were conducted in 384-well black Proxiplates in the presence of 10 mM Tris (pH 7.5), 50 mM NaCl, 4 mM MgCl2, 5% glycerol, 25 μM ATP, 10 μM PIP2 (Echelon Biosciences), 0.05% 3-[(3-cholamidopropyl)dimethylammonio]-1-propanesulfonate, 1 mM dithiothreitol, and 2% DMSO. The kinase reactions were initiated by the addition of 40 ng/mL p110α/p85α, 300 ng/mL p110β/p85α, 40 ng/mL p110γ, or 40 ng/mL p110δ/p85α (Upstate Group, Millipore; Dundee, UK), and 10 μM PIP2 (Echelon Biosciences) to the wells. The reactions were stopped at timepoints that yielded a fixed change in fluorescence polarization consistent with initial rate conditions (typically 30 minutes), by the addition of 12.5 mM EDTA, 100 nM GRP-1 detector, and 5 nM tetramethylrhodamine-labeled PIP3 (TAMRA-PIP3; Echelon Biosciences). After 60 minutes of incubation at room temperature to allow equilibration of labeled and unlabeled PIP3 binding, the parallel and perpendicular components of the fluorescence emissions from each sample were measured at an excitation wavelength of 530 nm and an emission wavelength of 590 nm using an Envision fluorescent plate reader with a rhodamine filter (PerkinElmer Life and Analytical Sciences; Wellesley, Mass.). The assay is capable of detecting 0.1-2.0 μM PIP3 product. The IC50 values were obtained by fitting the dose-dependent inhibition data to a 4-parameter equation using Assay Explorer software (MDL, San Ramon, Calif.).
Alternatively, inhibition of PI3K was determined in a radiometric assay using purified, recombinant enzyme and ATP at a concentration of 1 uM. The Formula I compound was serially diluted in 100% DMSO. The kinase reaction was incubated for 1 h at room temperature, and the reaction was terminated by the addition of PBS. IC50 values were subsequently determined using sigmoidal dose-response curve fit (variable slope).
The same protocol may be used to establish IC50 values for p110α (alpha) PI3K binding.
as §1
p110 alpha: Similar to the method used for p110 delta, described above, a FLAG™-tagged version of p110 alpha (Volinia et al (1994) Genomics, 24(3):427-77) was subcloned in BamH1-HindIII sites of pFastbac HTb (Life Technologies) such that the clone was in frame with the His tag of the vector.

T1 sequence (O00329 whole entry, canonical isoform): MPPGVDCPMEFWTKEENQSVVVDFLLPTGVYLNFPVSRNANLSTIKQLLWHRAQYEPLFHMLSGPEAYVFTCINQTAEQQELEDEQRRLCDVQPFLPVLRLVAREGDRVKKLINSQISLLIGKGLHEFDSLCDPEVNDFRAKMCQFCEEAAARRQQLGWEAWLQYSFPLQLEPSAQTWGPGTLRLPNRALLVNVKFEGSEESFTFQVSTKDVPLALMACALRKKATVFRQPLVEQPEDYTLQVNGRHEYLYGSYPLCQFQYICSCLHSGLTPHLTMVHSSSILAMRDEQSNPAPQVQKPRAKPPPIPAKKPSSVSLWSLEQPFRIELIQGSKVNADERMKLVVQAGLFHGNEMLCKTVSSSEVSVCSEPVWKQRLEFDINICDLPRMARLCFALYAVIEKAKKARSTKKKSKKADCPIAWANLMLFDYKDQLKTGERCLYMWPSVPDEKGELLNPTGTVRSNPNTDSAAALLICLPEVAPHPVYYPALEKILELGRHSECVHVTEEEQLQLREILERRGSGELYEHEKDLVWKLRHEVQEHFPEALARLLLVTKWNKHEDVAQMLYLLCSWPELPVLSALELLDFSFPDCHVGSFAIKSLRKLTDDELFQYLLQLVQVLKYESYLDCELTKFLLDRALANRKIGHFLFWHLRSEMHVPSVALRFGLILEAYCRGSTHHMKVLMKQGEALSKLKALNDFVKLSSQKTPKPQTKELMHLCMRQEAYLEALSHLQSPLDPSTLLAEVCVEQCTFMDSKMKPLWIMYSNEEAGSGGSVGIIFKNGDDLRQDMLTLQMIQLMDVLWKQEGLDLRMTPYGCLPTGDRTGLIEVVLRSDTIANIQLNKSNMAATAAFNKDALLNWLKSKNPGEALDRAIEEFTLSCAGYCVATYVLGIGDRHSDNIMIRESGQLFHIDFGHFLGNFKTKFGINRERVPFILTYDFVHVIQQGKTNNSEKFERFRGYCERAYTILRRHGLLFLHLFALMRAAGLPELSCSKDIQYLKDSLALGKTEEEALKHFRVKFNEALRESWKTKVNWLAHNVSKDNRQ
T1 sequence (P27986 whole entry partner, canonical isoform): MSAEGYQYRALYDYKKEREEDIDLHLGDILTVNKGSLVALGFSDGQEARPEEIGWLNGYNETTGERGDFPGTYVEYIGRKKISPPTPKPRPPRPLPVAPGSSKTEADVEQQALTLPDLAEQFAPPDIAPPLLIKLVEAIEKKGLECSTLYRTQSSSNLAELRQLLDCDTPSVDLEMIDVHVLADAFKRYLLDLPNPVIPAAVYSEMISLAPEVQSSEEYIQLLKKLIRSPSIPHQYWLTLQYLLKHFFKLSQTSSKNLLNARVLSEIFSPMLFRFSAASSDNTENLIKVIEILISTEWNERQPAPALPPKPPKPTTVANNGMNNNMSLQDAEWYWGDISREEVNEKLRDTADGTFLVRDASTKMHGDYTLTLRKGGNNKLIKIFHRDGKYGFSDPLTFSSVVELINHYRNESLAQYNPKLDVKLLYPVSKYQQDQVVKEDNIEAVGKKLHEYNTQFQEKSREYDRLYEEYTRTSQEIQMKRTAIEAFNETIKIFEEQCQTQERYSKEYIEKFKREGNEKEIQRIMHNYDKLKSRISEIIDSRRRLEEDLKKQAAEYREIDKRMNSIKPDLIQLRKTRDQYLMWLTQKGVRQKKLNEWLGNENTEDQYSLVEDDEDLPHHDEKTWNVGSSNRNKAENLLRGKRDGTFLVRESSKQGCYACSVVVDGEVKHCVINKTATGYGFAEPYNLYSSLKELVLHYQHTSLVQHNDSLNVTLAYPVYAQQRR
T2 sequence (P42336 whole entry, canonical isoform): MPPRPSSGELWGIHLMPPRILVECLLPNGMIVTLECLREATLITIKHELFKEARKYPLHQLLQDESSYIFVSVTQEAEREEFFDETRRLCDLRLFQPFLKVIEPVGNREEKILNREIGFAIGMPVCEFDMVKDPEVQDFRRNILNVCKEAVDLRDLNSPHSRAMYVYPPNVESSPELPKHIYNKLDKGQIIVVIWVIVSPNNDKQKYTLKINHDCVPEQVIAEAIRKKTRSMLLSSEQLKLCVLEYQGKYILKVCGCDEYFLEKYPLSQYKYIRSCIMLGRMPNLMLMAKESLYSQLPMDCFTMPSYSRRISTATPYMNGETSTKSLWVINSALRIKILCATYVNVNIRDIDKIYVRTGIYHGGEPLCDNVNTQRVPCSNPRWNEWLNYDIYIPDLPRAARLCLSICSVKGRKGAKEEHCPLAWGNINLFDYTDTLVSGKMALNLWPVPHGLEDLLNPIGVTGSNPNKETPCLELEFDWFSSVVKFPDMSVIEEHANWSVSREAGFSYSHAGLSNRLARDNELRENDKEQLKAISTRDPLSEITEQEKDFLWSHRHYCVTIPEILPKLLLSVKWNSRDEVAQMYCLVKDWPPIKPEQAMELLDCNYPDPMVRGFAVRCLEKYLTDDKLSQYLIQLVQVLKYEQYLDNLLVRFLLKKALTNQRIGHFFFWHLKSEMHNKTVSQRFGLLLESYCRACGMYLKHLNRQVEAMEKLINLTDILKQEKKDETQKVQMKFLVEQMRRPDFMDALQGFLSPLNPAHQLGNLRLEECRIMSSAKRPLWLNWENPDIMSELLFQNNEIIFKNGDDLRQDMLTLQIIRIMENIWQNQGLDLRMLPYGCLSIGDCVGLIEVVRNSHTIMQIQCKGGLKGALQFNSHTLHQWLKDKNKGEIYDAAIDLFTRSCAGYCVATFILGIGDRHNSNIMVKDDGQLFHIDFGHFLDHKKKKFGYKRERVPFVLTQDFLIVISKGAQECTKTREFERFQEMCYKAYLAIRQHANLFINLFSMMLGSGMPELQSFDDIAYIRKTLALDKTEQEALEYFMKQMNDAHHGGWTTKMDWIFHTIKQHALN
T2 sequence (P27986 whole entry partner, canonical isoform): as the sequence (P27986 whole entry partner, canonical isoform) above

Row | SMILES | IC50 [1] [µM] | IC50 (p110 delta) [µM] | IC50 p110 alpha/IC50 p110 delta (greater than or equal to, ≧) (p110 alpha)
1 | C[C@H](Nc1ncnc2[nH]cnc12)c1nc2cccc(F)c2n1-c1ccccc1 [Example 124, (S)—N-(1-(7-fluoro-1-phenyl-1H-benzo[d]imidazol-2-yl)ethyl)-9H-purin-6-amine] | 0.0671 | – | –
2 | C[C@H](Nc1ncnc2[nH]cnc12)c1nc2ccc(F)cc2n1-c1ccccc1 [Example 123, (S)—N-(1-(6-fluoro-1-phenyl-1H-benzo[d]imidazol-2-yl)ethyl)-9H-purin-6-amine] | 0.0291 | 0.000854 | ≥ 2459
3 | C[C@H](Nc1ncnc2[nH]cnc12)c1nc2cccnc2n1-c1ccccc1 [Example 114, (S)—N-(1-(3-phenyl-3H-imidazo[4,5-b]pyridin-2-yl)ethyl)-9H-purin-6-amine] | 0.0834 | 0.0201 | ≥ 104
4 | C[C@H](Nc1ncnc2[nH]cnc12)c1nc2cccc(Cl)c2n1-c1ccccc1 [Example 138, (S)—N-(1-(7-chloro-1-phenyl-1H-benzo[d]imidazol-2-yl)ethyl)-9H-purin-6-amine] | 0.0876 | – | –

Reference: patent US8653089B2, “Heterocyclic compounds and methods of use” (F. Hoffmann-La Roche AG, priority 2011, dated 2014)
